{
  "source": "patent US20040067932A1",
  "about": "(priority 2002, published 2004)",
  "key": {"[1]": {"system": "human melanoma A375 cell line", "experiment": "MTT growth inhibitory assay, A375", "assay_type": "cell-based", "conditions": "for IC50: Homo sapiens", "method": "(§3) One of the growth inhibitory assays is the MTT assay. Cells (1000-1500 cells/well) are seeded in a 96-well micro culture plate in a total volume of 100 μl/well. After overnight incubation in a humidified incubator at 37° C. with 5% CO2-95% air, chemotherapeutic drug solutions diluted with culture medium at various concentrations are added in the amount of 100 μl to each well. The plates are placed in a humidified incubator at 37° C. with 5% CO2-95% air for 7-10 days. The plates are then centrifuged briefly and 100 μl of the growth medium is removed. Cell cultures are incubated with 50 μl of MTT [3-(4,5-dimethylthiazol-2-yl)-2,5-diphenyl-tetrazolium bromide] reagent (1 mg/ml in Dulbecco's phosphate-buffered saline) for 4 hr at 37° C. The resultant purple formazan precipitate is solubilized with 200 μl of 0.04 N HCl in isopropanol. Absorbance is measured at a wavelength of 595 nm and at a reference wavelength of 655 nm using a Bio-Rad Model 3550 Microplate Reader. Preferably, all tests are run in duplicate for each dose level.\n(§4) The EZED50 computer program estimates the concentration of agent that inhibits cell growth by 50% as compared to the control cells. This is termed the IC50 and is determined by curve fitting test data using the following four logistic equation. [formula]\n(§5) Inhibitory assay testing is also used to determine enhanced therapeutic effects from combining A3 receptor antagonists with other tumor inhibiting agents. The inhibitory cell growth assays are run with and without selected concentrations of A3 receptor antagonists. An enhanced therapeutic effect is present when the IC50 of the tumor inhibiting agent is lower with the A3 receptor antagonist.\n(§6) Quantitatively, the enhancement factor (EF) is calculated by dividing the IC50 value of the tumor inhibiting agent for a tumor cell line by the IC50 value of the agent with A3 receptor antagonist for the same cell line: [formula]"}, "[2]": {"system": "human colon carcinoma HT29 cell line", "experiment": "MTT growth inhibitory assay, HT29", "assay_type": "cell-based", "conditions": "HT-29", "method": "as §3, §4, §5, §6"}, "[3]": {"system": "human pancreatic cancer Panc-1", "experiment": "MTT growth inhibitory assay, Panc-1", "assay_type": "cell-based", "method": "as §3, §4, §5, §6"}, "[4]": {"system": "human lung carcinoma SKMES", "experiment": "MTT growth inhibitory assay, SKMES", "assay_type": "cell-based", "method": "as §3, §4, §5, §6"}, "[5]": {"system": "A375 melanoma cells", "experiment": "Colony formation assay of A375 cells", "assay_type": "cell-based, human", "conditions": "paclitaxel 0.75 ng/ml alone, 7 days", "experimental": "FIG. 2 illustrates colony formation assay of A375 cells. Cells were treated with different drugs and colonies were counted after 7 days. The values represent the mean ±SEM of four independent experiments. D=DMSO (control); T=paclitaxel, 0.75 ng/ml; M=MRE 3008F20, 10 μM; C=CI-IB-MECA, 10 μM; TM=paclitaxel plus MRE 3008F20; TC=paclitaxel plus CI-IB-MECA treated cells. *P<0.01 TM versus T. Analysis was by ANOVA followed by Dunnett's test.;\nControl plates received the same volume of DMSO alone. After 7 days of growth at 37° C. in humidified atmosphere containing 5% CO2, the cells were fixed with absolute methanol for 5′ and stained with 1/10 Giemsa/phosphate-buffered saline (PBS) staining solution for 10 minutes. Staining solution was removed and colonies of greater than 30 cells were scored as survivors. For each treatment, six individual wells were scored.\nColony formation assay experiments were performed on A375 melanoma cells treated with increasing concentration of paclitaxel (0.25-75 ng/ml). A3 stimulation is achieved with the selective agonist CI-IB-MECA while A3 blockade is obtained with the selective antagonist MRE 3008F20. […] (FIG. 2)"}, "[6]": {"system": "A375 cells", "experiment": "Flow cytometry (PI) G2/M accumulation and sub-G1 apoptosis, A375", "assay_type": "cell-based, human", "conditions": "for EC50: Homo sapiens, A-375, 24 h", "experimental": "(§1) A375 and NCTC2544 adherent cells were trypsinized, mixed with floating cells, washed with PBS and permeabilised in 70% (vol/vol) ethanol/PBS solution at 4° C. for at least 24 hours. Jurkat, HeL023 and PBMC cells were centrifuged for 10 minutes at 1000×g. The cell pellet was then resuspended and permeabilised in 70% (vol/vol) ethanol/PBS solution at 4° C. for at least 24 hours. The cells were washed with PBS and the DNA was stained with a PBS solution, containing 20 μg/ml of propidium iodide and 100 μg/ml of RNAse, at room temperature for 30 minutes. Cells were analysed by FACScan (Becton-Dickinson) and the content of DNA was evaluated by the Cell-LISYS program (Becton-Dickinson). Cell distribution among cell cycle phases and apoptotic cells was evaluated as previously described (Secchiero et al., 2001). Briefly, the cell cycle distribution is shown as the percentage of cells containing 2n (G1 phase), 4n (G2 and M phases), 4n>x>2n. DNA amount (S phase) judged by propidium iodide staining. The apoptotic population is the percentage of cells with DNA content lower than 2n.\nCell proliferation and apoptosis are quantified by flow cytometer analysis after propidium-iodide (PI) DNA staining."}, "[7]": {"system": "HeL023 cells", "experiment": "Flow cytometry (PI) G2/M accumulation and sub-G1 apoptosis, HeL023", "assay_type": "cell-based, human", "conditions": "DMSO (no antagonist); for EC50: Homo sapiens", "experimental": "as §1\n(§2) To verify the role of A3 receptor antagonists on paclitaxel and vindesine mediated alteration of cell proliferation and apoptosis, testing was performed with additional cell lines. […] Experimental conditions are similar to those for the A375 cell testing."}, "[8]": {"system": "Jurkat cells", "experiment": "Flow cytometry (PI) G2/M accumulation and sub-G1 apoptosis, Jurkat", "assay_type": "cell-based, human", "conditions": "DMSO (no antagonist); for EC50: Homo sapiens", "experimental": "as §1, §2"}, "[9]": {"system": "NCTC2544 cells", "experiment": "Flow cytometry (PI) G2/M accumulation and sub-G1 apoptosis, NCTC2544", "assay_type": "cell-based, human", "conditions": "NCTC 2544, DMSO (no antagonist); for EC50: Homo sapiens", "experimental": "as §1, §2"}, "[10]": {"system": "PBMC blasts", "experiment": "Flow cytometry (PI) G2/M accumulation, PBMC blasts", "assay_type": "cell-based", "conditions": "Homo sapiens, DMSO (no antagonist)", "method": "Cells are passaged two or three times weekly at a ratio between 1:5 and 1:10. Lymphocytes were isolated from buffy coats kindly provided by the Blood Bank of the University Hospital of Ferrara. Blood donated by healthy volunteers, after informed consent for research was obtained. Lymphocytes were isolated by density gradient centrifugation (Ficoll/Histopaque 1.077 g/ml). The cells are stimulated with purified phytohemoagglutinin (1 μg/ml) and expanded in RPMI medium added of interleukin 2 (20 Units/ml) and 10% fetal calf serum.\nJurkat, HeL023 and PBMC cells were centrifuged for 10 minutes at 1000×g. The cell pellet was then resuspended and permeabilised in 70% (vol/vol) ethanol/PBS solution at 4° C. for at least 24 hours. The cells were washed with PBS and the DNA was stained with a PBS solution, containing 20 μg/ml of propidium iodide and 100 μg/ml of RNAse, at room temperature for 30 minutes. Cells were analysed by FACScan (Becton-Dickinson) and the content of DNA was evaluated by the Cell-LISYS program (Becton-Dickinson). Cell distribution among cell cycle phases and apoptotic cells was evaluated as previously described (Secchiero et al., 2001). Briefly, the cell cycle distribution is shown as the percentage of cells containing 2n (G1 phase), 4n (G2 and M phases), 4n>x>2n. DNA amount (S phase) judged by propidium iodide staining. […]"}, "[11]": {"conditions": "read-out: paclitaxel EC50 (G2/M accumulation)"}, "[12]": {"conditions": "read-out: vindesine EC50 (G2/M accumulation)"}},
  "note": "Where two headings read alike, the source gives them in different places.",
  "data": [
    {"smiles": "CC(=O)O[C@H]1C(=O)[C@@]2(C)[C@H]([C@H](OC(=O)c3ccccc3)[C@]3(O)C[C@H](OC(=O)[C@H](O)[C@@H](NC(=O)c4ccccc4)c4ccccc4)C(C)=C1C3(C)C)[C@]1(OC(C)=O)CO[C@@H]1C[C@@H]2O", "note": "[paclitaxel]", "values": [
      {"measurement": "IC50 of paclitaxel, A3 antagonist none", "setting": "[1]; A375, paclitaxel 0.0001-0.05 μg/ml, alone (control of each antagonist series)", "result": 4.2, "unit": "ng/mL"},
      {"measurement": "IC50", "setting": "[1]; A-375, A375, paclitaxel 0.0001-0.05 μg/ml, alone (control of each antagonist series), read-out: IC50 of paclitaxel, A3 antagonist none", "result": 4.4, "unit": "ng/mL"},
      {"measurement": "IC50", "setting": "[1]; A-375, A375, paclitaxel 0.0002-0.1 μg/ml, alone, read-out: IC50 of paclitaxel, A3 antagonist none", "result": 4.6, "unit": "ng/mL"},
      {"measurement": "IC50", "setting": "[1]; A-375, Human Melanoma A375, read-out: IC50 growth inhibition, agent used separately", "result": "4 ± 0.2", "unit": "ng/mL"},
      {"measurement": "IC50", "setting": "[2]; Human Colon Carcinoma HT29, read-out: IC50 growth inhibition, agent used separately", "result": "1.12 ± 0.3", "unit": "ng/mL"},
      {"measurement": "IC50", "setting": "[2]; Homo sapiens, HT29, paclitaxel 0.0001-0.05 μg/ml, alone, read-out: IC50 of paclitaxel, A3 antagonist none", "result": 2.5, "unit": "ng/mL"},
      {"measurement": "IC50", "setting": "[3]; Homo sapiens, Panc-1, paclitaxel 0.0001-0.05 μg/ml, alone, read-out: IC50 of paclitaxel, A3 antagonist none", "result": 2.9, "unit": "ng/mL"},
      {"measurement": "IC50", "setting": "[3]; Human Pancreatic Cancer Panc-1, read-out: IC50 growth inhibition, agent used separately", "result": "2.7 ± 0.3", "unit": "ng/mL"},
      {"measurement": "IC50", "setting": "[4]; Homo sapiens, SKMES, paclitaxel 0.0001-0.05 μg/ml, alone, read-out: IC50 of paclitaxel, A3 antagonist none", "result": 3.3, "unit": "ng/mL"},
      {"measurement": "IC50", "setting": "[4]; Human Lung Carcinoma SKMES, read-out: IC50 growth inhibition, agent used separately", "result": "2.6 ± 0.7", "unit": "ng/mL"},
      {"measurement": "colony formation, % of the control", "setting": "[5]", "result": 64, "unit": "%"},
      {"measurement": "paclitaxel ECMAX (sub-G1, maximal apoptosis)", "setting": "[6]; A375, DMSO (no antagonist)", "result": "6.00 ± 0.63", "unit": "ng/mL"},
      {"measurement": "EC50", "setting": "[6]; [11]", "result": "16.6 ± 2", "unit": "ng/mL"},
      {"measurement": "paclitaxel ECMAX (sub-G1)", "setting": "[7]", "result": "33.42 ± 3.55", "unit": "ng/mL"},
      {"measurement": "EC50", "setting": "[7]; [11]", "result": "50.6 ± 5.3", "unit": "ng/mL"},
      {"measurement": "paclitaxel ECMAX (sub-G1)", "setting": "[8]", "result": "3.32 ± 0.52", "unit": "ng/mL"},
      {"measurement": "EC50", "setting": "[8]; [11]", "result": "2.96 ± 0.31", "unit": "ng/mL"},
      {"measurement": "EC50", "setting": "[9]; [11]", "result": "2.69 ± 0.28", "unit": "ng/mL"},
      {"measurement": "paclitaxel ECMAX (sub-G1)", "setting": "[9]", "result": "2.69 ± 0.23", "unit": "ng/mL"},
      {"measurement": "EC50", "setting": "[10]; [11]", "result": "5.3 ± 0.6", "unit": "ng/mL"}
    ]},
    {"smiles": "CC[C@]1(O)C[C@@H]2CN(CCc3c([nH]c4ccccc34)[C@@](C(=O)OC)(c3cc4c(cc3OC)N(C)[C@H]3[C@@](O)(C(N)=O)[C@H](O)[C@]5(CC)C=CCN6CC[C@]43[C@@H]65)C2)C1", "note": "[vindesine]", "values": [
      {"measurement": "vindesine ECMAX (sub-G1, maximal apoptosis)", "setting": "[6]; A375, DMSO (no antagonist)", "result": "3.54 ± 0.42", "unit": "nM"},
      {"measurement": "EC50", "setting": "[6]; [12]", "result": "1.9 ± 0.2", "unit": "nM"},
      {"measurement": "vindesine ECMAX (sub-G1)", "setting": "[7]", "result": "33.11 ± 4.02", "unit": "nM"},
      {"measurement": "EC50", "setting": "[7]; [12]", "result": "25.8 ± 3.25", "unit": "nM"},
      {"measurement": "EC50", "setting": "[8]; [12]", "result": "0.93 ± 0.08", "unit": "nM"},
      {"measurement": "EC50", "setting": "[9]; [12]", "result": "0.89 ± 0.08", "unit": "nM"},
      {"measurement": "vindesine ECMAX (sub-G1)", "setting": "[9]", "result": "2.50 ± 0.27", "unit": "nM"},
      {"measurement": "EC50", "setting": "[10]; [12]", "result": "1.1 ± 0.9", "unit": "nM"}
    ]}
  ]
}
